These results are taken from patent US7550613B2, “Compounds” (Pronova Biopharma Norge AS, priority 2005, dated 2009).

SMILES strings stand for the structures.

The nature of series [1]: Analysis of intracellular free fatty acids in liver tissue (RP-HPLC MS/MS). It counts as in vivo, adipose prone mice of the C57BL/6J strain. As to conditions: FIG. 4; 1.5% of total fat content. Here is the method: In the first block of experiments (see FIG. 2) liver tissue from animals fed PRB-1,2,5, and 7 was analysed with respect to free unesterified fatty acids. The animals were recruited from the fifth block of experiments (pharmacodynamic effects of DHA derivatives in an animal model of metabolic syndrome). The animals had been given DHA ([…] of fat content of the diet) or the DHA-derivatives (1.5% of the fat content in their diet) for 8 weeks and were supposed to be in a steady-state situation with stable levels of DHA and the DHA-derivatives intracellularily. Liver tissue was chosen due to the fact that the metabolisation rate is very high in liver.
The liver samples were homogenized in cold PBS buffer, and extracted immediately with chloroform:methanol (2:1) containing 0.2 mM butylated hydroxytoluene (BHT) using cis-10-heptadecenoic acid as internal standard. […] Total protein content was measured using Bio-Rad method after homogenization.
Agilent 1100 system was used for reverse phase column (Supelco Ascentis C18 column, 25 cm×4.6 mm, i.d. 5 μm) separation of DHA and its PRB derivatives within 22 min. […] The column elute was identified and quantified in the negative electrospray ionisation applying multiple reaction monitoring mode by triple tandem quadrapole mass/mass (ABI Qtrap-4000). […] The quadratic regression standard curve was used for quantification after internal standard calibration. […]

Another series concerns the target T1, PPARγ (Homo sapiens, UniProt P37231).
T1 construct: For full length PPAR transfection studies, each well received 5 μg reporter construct; expressed in transfected cells; host or cells: COS-1 cells
T1 sequence (P37231 1-505): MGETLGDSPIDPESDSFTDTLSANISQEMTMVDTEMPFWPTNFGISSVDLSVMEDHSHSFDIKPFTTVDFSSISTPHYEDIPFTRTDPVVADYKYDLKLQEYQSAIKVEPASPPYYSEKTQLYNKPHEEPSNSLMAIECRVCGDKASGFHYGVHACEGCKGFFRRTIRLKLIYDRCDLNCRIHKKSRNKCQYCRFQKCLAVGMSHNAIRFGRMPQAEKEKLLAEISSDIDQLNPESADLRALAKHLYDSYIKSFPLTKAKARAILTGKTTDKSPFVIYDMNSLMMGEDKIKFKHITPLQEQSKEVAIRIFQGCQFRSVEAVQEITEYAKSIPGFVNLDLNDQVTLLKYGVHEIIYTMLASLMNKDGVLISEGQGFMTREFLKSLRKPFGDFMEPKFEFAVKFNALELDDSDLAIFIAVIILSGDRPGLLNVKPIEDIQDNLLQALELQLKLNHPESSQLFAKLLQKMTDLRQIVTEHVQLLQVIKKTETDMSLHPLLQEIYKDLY
As to the kind of experiment: Affinity testing in transfected cells (release of luciferase). It is filed as cell-based. As to conditions: FIG. 8; 10 μM of PRBs. Here is the method: Release of luciferase is correlated to transcription of genes. Binding of a ligand to a nuclear receptor such as PPARγ induces transcription of the respective gene thereby releasing luciferase. This technique therefore provides a measure of ligand affinity to the receptor as well as activation of the responsible gene.
Transient transfection of COS-1 cells was performed in 6-well plates as described by Graham and van der Eb (Graham). For full length PPAR transfection studies, each well received 5 μg reporter construct, 2.5 μg pSV-β-galactosidase as an internal control, 0.4 μg pSG5-PPARγ2. The cells were harvested after 72 h, and the luciferase activity was measured according to the protocol (Promega). The luciferase activity was normalised against β-galactosidase activity. The adipocytes were transfected at D11 of differentiation using 16 μl LipofectaminPlus reagent, 4 μl Lipofectamine (Life Technologies Inc.), 0.2 μg pSG5-PPARγ, and 100 ng pTK Renilla luciferase as control of transfection afficiency. […] The luciferase activities were measured as recommended by the manufacturer (Dual Luciferase assay, Promega). […]
Fatty acids (BRL or DHA) and PRBs (stock solutions) were solubilized to 0.1 M final concentration in DMSO. […] Luciferase activity was measured using a luminometer (TD-20/20 luminometer; Turner Designs, Sunnycvale, Calif.) and normalized against protein content.

Series [2] in a line: Effect of DHA derivatives on established metabolic syndrome and insulin resistance (Example 5b). It is filed as in vivo, C57BL/6 mice. The procedure: In another experiment, PRB-2, PRB-5, and PRB-7 were tested in the same breed of animals. In this experiment, animals were initially fed high fat diet (the same as in the previous experiment 5a) for 8 weeks developing insulin resistance and the metabolic syndrome, and then given the PRBs. […] After a period of another two weeks the animals were given 1.5% of PRB-2, 5% and 1.5% of PRB-5, and 1.5% and 0.5% of PRB-7.

Series [3] is described as follows: Histological analysis of tissue samples, liver fat (Example 5c). It is filed as in vivo, C57BL/6 mice. The conditions noted are these: eosin-hematoxylin; control animals fed high fat diet had fat liver. An excerpt:
Tissue samples from animals in the experiments with DHA derivatives was histologically analysed. After paraffination, tissue samples from liver, adipose tissue, skeletal muscle, pancreas, and kidney were stained with eosin-hematoxylin.

`CC/C=C\C/C=C\C/C=C\C/C=C\C/C=C\C/C=C\CC(SCC)C(=O)OCC` (stereo not drawn) [PRB-7, α-tioethyl docosahexaenoic acid ethyl ester]: the “intracellular concentration of DHA in liver tissue from animals given the PRB” value in series [1] was “significantly higher level”. For the same molecule, on PPARγ, the “release of luciferase from transfected cells” value is on record as “significantly higher release of luciferase”. Besides, the plasma insulin entry in series [2] (FIG. 15) is reported as “some effects on the insulin concentration”. Also, the “AUC blood glucose compared to the baseline values” in series [2] (FIG. 16, 1.5% of PRB-2) was “some effect but not to the same extent”. Besides, in series [3], the “fat liver (liver steatosis), histology” value is recorded as “low degree of fat liver”.
